Measured values reported in patent US8158636B2, “Compounds and methods for kinase modulation, and indications therefor” (Plexxikon Inc., priority 2008, dated 2012).

Experiments:
Type in all cases: biochemical
Kit = Kit (Homo sapiens, UniProt P10721); assay: Kinase activity assay, Kit; settings: Table 1j; read-out: activity toward kinase Kit, IC50
Text: (§1) Assays for the activity of kinases, including, but not limited to, Fms, Kit, B-Raf, B-Raf V600E, c-Raf-1, and TrkA are known in the art, for example as described in US Patent Publication Number US20070032519 and U.S. patent application Ser. No. 11/473,347 (see also, PCT publication WO2007002433), the disclosures of which are hereby incorporated by reference with respect to such assays.

Fms = Fms (Homo sapiens, UniProt P07333); assay: Kinase activity assay, Fms; settings: Table 1h; read-out: activity toward kinase Fms, IC50
Text: as §1

TrkA = TrkA (Homo sapiens, UniProt P04629); assay: Kinase activity assay, TrkA; settings: Table 1m; read-out: activity toward kinase TrkA, IC50
Sequence of TrkA (P04629 33-796): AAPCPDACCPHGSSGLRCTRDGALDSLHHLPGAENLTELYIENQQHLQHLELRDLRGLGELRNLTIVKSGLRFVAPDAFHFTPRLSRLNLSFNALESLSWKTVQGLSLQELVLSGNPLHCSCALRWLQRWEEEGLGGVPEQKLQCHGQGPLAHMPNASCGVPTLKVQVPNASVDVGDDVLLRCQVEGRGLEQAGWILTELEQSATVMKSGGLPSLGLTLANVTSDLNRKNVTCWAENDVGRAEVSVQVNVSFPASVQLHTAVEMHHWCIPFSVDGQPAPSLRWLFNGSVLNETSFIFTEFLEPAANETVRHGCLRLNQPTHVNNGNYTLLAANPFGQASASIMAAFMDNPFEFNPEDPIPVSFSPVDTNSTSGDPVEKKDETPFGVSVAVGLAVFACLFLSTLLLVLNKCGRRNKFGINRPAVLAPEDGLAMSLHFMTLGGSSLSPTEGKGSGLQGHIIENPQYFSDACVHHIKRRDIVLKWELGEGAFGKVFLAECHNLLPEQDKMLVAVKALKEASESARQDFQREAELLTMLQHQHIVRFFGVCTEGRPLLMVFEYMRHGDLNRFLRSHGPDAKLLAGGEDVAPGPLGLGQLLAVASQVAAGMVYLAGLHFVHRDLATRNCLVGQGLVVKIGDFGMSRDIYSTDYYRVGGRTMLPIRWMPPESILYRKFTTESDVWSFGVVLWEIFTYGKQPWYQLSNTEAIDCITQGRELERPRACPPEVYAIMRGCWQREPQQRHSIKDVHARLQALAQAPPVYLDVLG
Text: as §1

Kdr = Kdr (Homo sapiens, UniProt P35968); assay: Kinase activity assay, Kdr; settings: Table 1i; read-out: activity toward kinase Kdr, IC50
Sequence of Kdr (P35968 20-1356): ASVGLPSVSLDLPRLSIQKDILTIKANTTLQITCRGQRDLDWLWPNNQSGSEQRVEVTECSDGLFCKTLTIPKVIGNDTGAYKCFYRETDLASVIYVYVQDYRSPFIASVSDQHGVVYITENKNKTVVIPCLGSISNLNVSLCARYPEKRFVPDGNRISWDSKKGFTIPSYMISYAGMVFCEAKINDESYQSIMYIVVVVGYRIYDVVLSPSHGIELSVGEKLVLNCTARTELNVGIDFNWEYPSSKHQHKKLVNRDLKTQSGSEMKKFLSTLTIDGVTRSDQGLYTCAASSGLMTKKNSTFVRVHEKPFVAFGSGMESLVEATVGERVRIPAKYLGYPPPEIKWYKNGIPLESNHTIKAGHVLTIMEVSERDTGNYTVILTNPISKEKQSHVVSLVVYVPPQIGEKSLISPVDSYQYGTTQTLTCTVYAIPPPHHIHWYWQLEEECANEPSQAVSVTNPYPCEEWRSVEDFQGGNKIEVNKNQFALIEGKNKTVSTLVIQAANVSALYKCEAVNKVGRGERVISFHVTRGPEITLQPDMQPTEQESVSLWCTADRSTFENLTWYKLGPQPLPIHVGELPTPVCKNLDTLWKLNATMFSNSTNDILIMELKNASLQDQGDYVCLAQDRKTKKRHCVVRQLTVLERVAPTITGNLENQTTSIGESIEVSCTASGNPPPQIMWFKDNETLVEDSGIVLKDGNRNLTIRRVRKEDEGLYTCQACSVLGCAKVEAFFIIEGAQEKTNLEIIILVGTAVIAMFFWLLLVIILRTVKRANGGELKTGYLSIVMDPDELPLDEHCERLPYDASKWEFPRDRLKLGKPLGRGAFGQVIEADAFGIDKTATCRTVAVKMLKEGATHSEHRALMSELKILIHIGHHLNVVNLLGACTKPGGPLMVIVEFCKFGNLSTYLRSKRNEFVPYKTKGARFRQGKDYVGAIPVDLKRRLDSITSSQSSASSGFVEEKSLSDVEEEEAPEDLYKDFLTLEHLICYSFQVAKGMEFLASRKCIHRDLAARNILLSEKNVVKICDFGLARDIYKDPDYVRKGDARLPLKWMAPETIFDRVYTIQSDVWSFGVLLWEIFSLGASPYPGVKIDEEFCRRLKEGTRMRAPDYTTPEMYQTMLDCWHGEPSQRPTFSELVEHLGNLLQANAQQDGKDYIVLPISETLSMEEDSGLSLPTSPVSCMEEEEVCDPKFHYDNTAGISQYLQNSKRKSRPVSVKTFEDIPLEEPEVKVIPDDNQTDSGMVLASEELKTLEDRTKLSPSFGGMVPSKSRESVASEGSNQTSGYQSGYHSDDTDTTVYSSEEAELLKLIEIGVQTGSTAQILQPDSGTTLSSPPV
Text: as §1

Flt-3 = biological target: T1, Flt-3 (Homo sapiens, UniProt P36888); assay: Kinase activity assay, Flt-3; settings: Table 1g; read-out: activity toward kinase Flt-3, IC50
T1 sequence (P36888 27-993): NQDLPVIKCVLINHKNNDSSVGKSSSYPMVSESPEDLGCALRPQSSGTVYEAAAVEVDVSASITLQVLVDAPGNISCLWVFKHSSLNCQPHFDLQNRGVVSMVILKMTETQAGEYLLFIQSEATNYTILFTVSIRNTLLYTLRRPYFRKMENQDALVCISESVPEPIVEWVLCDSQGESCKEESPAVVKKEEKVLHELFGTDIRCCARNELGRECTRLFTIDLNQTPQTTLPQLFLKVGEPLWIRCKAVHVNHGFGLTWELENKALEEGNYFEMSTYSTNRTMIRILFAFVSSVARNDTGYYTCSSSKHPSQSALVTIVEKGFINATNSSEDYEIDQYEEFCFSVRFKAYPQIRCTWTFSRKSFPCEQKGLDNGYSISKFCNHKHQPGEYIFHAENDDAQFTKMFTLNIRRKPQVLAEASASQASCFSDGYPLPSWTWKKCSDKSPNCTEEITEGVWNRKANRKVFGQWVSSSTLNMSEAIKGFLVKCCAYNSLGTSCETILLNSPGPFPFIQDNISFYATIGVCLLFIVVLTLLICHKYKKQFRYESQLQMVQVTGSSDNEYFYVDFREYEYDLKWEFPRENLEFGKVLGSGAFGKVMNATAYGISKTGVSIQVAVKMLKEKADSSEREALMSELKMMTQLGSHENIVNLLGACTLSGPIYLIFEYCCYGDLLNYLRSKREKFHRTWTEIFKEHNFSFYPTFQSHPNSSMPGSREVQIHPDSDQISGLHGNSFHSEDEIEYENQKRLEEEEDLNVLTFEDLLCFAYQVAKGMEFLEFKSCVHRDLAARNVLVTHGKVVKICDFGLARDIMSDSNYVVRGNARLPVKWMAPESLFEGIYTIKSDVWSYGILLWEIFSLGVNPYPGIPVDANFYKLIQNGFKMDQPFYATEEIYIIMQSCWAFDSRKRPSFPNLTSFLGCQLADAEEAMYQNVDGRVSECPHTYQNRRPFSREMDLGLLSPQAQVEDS
Text: as §1

Src = Src (Homo sapiens, UniProt P12931); assay: Kinase activity assay, Src; settings: Table 1k; read-out: activity toward kinase Src, IC50
Sequence of Src (P12931 whole entry): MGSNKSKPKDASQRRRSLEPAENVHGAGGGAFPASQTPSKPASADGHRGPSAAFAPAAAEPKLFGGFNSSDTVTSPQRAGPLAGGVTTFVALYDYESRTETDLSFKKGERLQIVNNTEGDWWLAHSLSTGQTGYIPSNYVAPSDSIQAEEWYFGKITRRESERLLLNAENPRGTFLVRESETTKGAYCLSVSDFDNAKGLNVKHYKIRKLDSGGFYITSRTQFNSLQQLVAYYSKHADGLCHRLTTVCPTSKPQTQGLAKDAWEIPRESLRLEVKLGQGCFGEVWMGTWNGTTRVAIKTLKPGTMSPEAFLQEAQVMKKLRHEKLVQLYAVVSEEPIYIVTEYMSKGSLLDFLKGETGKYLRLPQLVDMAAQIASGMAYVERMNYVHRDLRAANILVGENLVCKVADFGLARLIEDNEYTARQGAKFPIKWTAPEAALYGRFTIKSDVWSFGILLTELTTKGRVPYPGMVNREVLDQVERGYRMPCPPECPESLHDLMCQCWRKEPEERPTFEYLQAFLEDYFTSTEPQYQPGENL
Text: as §1

B-Raf V600E = B-Raf V600E (Homo sapiens, UniProt P15056, V600E); assay: Kinase activity assay, B-Raf V600E; settings: Table 1c; read-out: activity toward kinase B-Raf V600E, IC50
Sequence of B-Raf V600E (P15056 whole entry V600E): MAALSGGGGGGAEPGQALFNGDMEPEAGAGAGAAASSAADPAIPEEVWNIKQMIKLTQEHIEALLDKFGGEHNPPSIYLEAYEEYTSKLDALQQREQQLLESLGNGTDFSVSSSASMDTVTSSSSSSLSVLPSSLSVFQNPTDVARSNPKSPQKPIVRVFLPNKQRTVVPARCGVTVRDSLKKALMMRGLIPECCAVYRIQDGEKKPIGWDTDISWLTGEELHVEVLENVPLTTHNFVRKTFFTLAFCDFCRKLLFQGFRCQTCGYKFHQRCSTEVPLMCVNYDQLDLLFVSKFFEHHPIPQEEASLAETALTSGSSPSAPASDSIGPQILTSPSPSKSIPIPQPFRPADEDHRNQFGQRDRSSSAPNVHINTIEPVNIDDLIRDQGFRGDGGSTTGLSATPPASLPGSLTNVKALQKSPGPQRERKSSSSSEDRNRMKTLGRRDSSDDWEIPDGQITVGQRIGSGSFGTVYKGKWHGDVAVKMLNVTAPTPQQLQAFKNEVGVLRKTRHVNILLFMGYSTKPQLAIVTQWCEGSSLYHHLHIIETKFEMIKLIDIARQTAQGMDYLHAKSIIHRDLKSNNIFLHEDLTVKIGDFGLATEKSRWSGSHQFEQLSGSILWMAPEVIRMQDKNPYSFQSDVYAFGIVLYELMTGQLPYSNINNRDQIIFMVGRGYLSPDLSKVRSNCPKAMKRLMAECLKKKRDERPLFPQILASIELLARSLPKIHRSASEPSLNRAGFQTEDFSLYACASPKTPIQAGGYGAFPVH
Text: as §1

Flt-1 = Flt-1 (Homo sapiens, UniProt P17948); assay: Kinase activity assay, Flt-1; settings: Table 1f; read-out: activity toward kinase Flt-1, IC50
Text: as §1

A-Raf = biological target: T2, A-Raf (Homo sapiens, UniProt P10398); assay: Kinase activity assay, A-Raf; settings: Table 1a; read-out: activity toward kinase A-Raf, IC50
T2 sequence (P10398 1-606): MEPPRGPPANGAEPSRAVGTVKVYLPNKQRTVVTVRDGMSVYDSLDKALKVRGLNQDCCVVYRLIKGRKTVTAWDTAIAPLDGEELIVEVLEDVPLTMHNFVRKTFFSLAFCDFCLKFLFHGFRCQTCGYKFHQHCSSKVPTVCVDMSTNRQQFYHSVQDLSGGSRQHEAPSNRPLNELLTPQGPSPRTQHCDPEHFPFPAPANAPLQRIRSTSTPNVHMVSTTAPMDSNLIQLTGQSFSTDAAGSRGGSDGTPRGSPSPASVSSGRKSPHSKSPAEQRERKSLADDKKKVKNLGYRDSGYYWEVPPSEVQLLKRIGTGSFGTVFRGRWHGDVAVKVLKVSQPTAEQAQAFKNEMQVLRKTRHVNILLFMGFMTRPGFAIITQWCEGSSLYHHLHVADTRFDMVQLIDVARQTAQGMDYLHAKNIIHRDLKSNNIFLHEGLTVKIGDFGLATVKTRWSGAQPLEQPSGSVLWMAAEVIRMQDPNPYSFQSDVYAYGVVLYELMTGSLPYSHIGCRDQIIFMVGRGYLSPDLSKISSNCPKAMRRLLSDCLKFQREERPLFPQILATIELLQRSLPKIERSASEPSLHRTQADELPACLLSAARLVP
Text: as §1

Btk = Btk (Homo sapiens, UniProt Q06187); assay: Kinase activity assay, Btk; settings: Table 1e; read-out: activity toward kinase Btk, IC50
Sequence of Btk (Q06187 whole entry): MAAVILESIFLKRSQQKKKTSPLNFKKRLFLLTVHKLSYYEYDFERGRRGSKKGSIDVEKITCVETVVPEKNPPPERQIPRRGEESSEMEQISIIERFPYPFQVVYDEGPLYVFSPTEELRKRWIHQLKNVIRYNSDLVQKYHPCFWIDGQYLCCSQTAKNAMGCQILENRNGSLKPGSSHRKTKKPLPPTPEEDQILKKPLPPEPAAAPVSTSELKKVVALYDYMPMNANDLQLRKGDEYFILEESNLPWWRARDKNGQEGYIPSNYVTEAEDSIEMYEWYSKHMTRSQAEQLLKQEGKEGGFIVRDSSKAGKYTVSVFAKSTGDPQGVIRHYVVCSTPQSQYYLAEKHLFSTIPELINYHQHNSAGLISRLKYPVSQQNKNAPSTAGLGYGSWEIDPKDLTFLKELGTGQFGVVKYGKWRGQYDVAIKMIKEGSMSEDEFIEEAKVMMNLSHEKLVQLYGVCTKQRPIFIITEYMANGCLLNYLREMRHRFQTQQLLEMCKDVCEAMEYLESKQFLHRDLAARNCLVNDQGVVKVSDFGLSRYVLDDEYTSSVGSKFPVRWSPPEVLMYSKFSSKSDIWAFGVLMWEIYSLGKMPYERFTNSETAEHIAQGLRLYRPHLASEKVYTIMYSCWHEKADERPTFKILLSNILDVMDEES
Text: as §1

C-Raf = C-Raf (Homo sapiens, UniProt P04049); assay: Kinase activity assay, C-Raf; settings: Table 1d; read-out: activity toward kinase C-Raf, IC50
Text: as §1

B-Raf = B-Raf (Homo sapiens, UniProt P15056); assay: Kinase activity assay, B-Raf; settings: Table 1b; read-out: activity toward kinase B-Raf, IC50
Sequence of B-Raf (P15056 whole entry): as the sequence (P15056 whole entry V600E) above, with E600V counted along it
Text: as §1

Measured: IC50

Sequence of Kit (P10721 26-976): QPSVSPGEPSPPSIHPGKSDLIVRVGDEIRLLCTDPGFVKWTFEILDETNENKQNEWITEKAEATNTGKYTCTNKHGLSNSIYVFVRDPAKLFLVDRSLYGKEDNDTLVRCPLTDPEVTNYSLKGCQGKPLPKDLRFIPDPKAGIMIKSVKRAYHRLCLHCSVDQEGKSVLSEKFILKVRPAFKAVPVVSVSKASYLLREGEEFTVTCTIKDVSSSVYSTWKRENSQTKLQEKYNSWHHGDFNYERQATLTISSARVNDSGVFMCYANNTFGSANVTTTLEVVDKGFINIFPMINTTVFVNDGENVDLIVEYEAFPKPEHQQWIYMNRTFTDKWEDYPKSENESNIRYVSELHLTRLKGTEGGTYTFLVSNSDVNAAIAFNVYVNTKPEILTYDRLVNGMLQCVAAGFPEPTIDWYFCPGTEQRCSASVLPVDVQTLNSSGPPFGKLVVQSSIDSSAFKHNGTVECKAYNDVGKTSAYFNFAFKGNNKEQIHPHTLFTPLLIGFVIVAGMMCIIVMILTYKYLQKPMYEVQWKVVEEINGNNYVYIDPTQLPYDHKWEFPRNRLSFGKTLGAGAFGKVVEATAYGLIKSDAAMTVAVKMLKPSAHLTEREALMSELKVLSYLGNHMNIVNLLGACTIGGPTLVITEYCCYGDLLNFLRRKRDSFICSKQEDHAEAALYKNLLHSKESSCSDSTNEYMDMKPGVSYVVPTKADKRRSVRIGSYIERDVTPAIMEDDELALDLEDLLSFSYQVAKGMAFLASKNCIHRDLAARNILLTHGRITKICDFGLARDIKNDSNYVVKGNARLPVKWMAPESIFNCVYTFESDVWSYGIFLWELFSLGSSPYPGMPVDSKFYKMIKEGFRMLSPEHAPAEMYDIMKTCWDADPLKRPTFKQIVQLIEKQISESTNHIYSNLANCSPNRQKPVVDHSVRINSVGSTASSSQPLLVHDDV

Fc1nc(NCc2ccccc2Cl)ccc1Cc1c[nH]c2ncncc12 [P-0005, (2-Chloro-benzyl)-[6-fluoro-5-(7H-pyrrolo[2,3-d]pyrimidin-5-ylmethyl)-pyridin-2-yl]-amine]
≤ 10 µM: Kit | Fms | TrkA | Kdr | Flt-3 | Src

Fc1nc(NCc2ccc(Cl)cc2)ccc1Cc1c[nH]c2ncncc12 [P-0006, (4-Chloro-benzyl)-[6-fluoro-5-(7H-pyrrolo[2,3-d]pyrimidin-5-ylmethyl)-pyridin-2-yl]-amine]
not listed: Btk | C-Raf | B-Raf
≤ 10 µM: all other assays above

COc1ncnc2[nH]cc(Cc3cnc(NCc4cncc(F)c4)nc3)c12 [P-0098, (5-Fluoro-pyridin-3-ylmethyl)-[5-(4-methoxy-7H-pyrrolo[2,3-d]pyrimidin-5-ylmethyl)-pyrimidin-2-yl]-amine]
≤ 10 µM: Btk | Kit | Fms | TrkA

COc1ncc(CNc2ncc(Cc3c[nH]c4ncnc(OC)c34)cn2)cc1F [P-0092, (5-Fluoro-6-methoxy-pyridin-3-ylmethyl)-[5-(4-methoxy-7H-pyrrolo[2,3-d]pyrimidin-5-ylmethyl)-pyrimidin-2-yl]-amine]
≤ 10 µM: Kit | Fms | C-Raf | Src

Fc1nc(NCc2ccc(C(F)(F)F)nc2)ccc1Cc1c[nH]c2ncncc12 [P-0007, [6-Fluoro-5-(7H-pyrrolo[2,3-d]pyrimidin-5-ylmethyl)-pyridin-2-yl]-(6-trifluoromethyl-pyridin-3-ylmethyl)-amine]
≤ 10 µM: B-Raf V600E | Kit | Fms | TrkA | Kdr | Flt-3 | A-Raf

COc1ncc(F)cc1CNc1ccc(Cc2c[nH]c3ncncc23)c(F)n1 [P-0011, (5-Fluoro-2-methoxy-pyridin-3-ylmethyl)-[6-fluoro-5-(7H-pyrrolo[2,3-d]pyrimidin-5-ylmethyl)-pyridin-2-yl]-amine]
≤ 10 µM: Kit | Fms | TrkA | Kdr | Flt-3 | A-Raf

COc1ccc(CNc2ccc(Cc3c[nH]c4ncncc34)c(F)n2)cn1 [P-0009, [6-Fluoro-5-(7H-pyrrolo[2,3-d]pyrimidin-5-ylmethyl)-pyridin-2-yl]-(6-methoxy-pyridin-3-ylmethyl)-amine]
≤ 10 µM: B-Raf V600E | Btk | Kit | Fms | Kdr | Flt-3 | A-Raf

Fc1nc(NCc2cccnc2OC2CCCCC2)ccc1Cc1c[nH]c2ncncc12 [P-0088, (2-Cyclohexyloxy-pyridin-3-ylmethyl)-[6-fluoro-5-(7H-pyrrolo[2,3-d]pyrimidin-5-ylmethyl)-pyridin-2-yl]-amine]
≤ 10 µM: B-Raf V600E | B-Raf | Kit | Fms | C-Raf | Kdr | Src

COc1ccc(CNc2ccc(Cc3c[nH]c4ncnc(OC)c34)cn2)cn1 [P-0013, (6-Methoxy-pyridin-3-ylmethyl)-[5-(4-methoxy-7H-pyrrolo[2,3-d]pyrimidin-5-ylmethyl)-pyridin-2-yl]-amine]
≤ 10 µM: B-Raf V600E | B-Raf | Kit | Fms | Kdr | Flt-3 | A-Raf

COc1ncnc2[nH]cc(Cc3ccc(NCc4ccc(C(F)(F)F)nc4)nc3F)c12 [P-0101, [6-Fluoro-5-(4-methoxy-7H-pyrrolo[2,3-d]pyrimidin-5-ylmethyl)-pyridin-2-yl]-(6-trifluoromethyl-pyridin-3-ylmethyl)-amine]
not listed: Flt-3 | Src | Flt-1 | A-Raf
≤ 10 µM: all other assays above

COc1ncnc2[nH]cc(Cc3ccc(NCc4ccccc4Cl)nc3)c12 [P-0014, (2-Chloro-benzyl)-[5-(4-methoxy-7H-pyrrolo[2,3-d]pyrimidin-5-ylmethyl)-pyridin-2-yl]-amine]
≤ 10 µM: B-Raf V600E | Kit | Fms | Kdr | Flt-3 | A-Raf | Src
